According to US10550093B2, “Third generation taxoids and methods of using same” (The Research Foundation for the State University of New York, priority 2015, dated 2020):

Assays:
Type in all cases: cell-based
[1] = system: PANC-1 human pancreatic cancer cell line; test: Cytotoxicity of third-generation taxoids, PANC-1; settings: PANC-1 cells
[2] = system: MCF7 human breast cancer cell line; test: Cytotoxicity of third-generation taxoids, MCF7; settings: MCF7 cells
[3] = system: ID8 murine ovarian cancer cell line; test: Cytotoxicity of third-generation taxoids, ID8; settings: ID8 cells
LCC6-WT = test: Cytotoxicity of third-generation taxoids, LCC6-WT; settings: LCC6-WT cells
[4] = system: CFPAC-1 human pancreatic cancer cell line; test: Cytotoxicity of third-generation taxoids, CFPAC-1; settings: CFPAC-1 cells
[5] = system: LCC6-MDR drug resistant (Pgp+) human breast cancer cell line; test: Cytotoxicity of third-generation taxoids, LCC6-MDR; settings: LCC6-MDR cells
[6] = system: NCI/ADR drug resistant (Pgp+) human ovarian cancer cell line; test: Cytotoxicity of third-generation taxoids, NCI/ADR; settings: NCI/ADR-RES, NCI/ADR cells

SMILES | IC50 (LCC6-WT) [nM] | IC50 [1] [nM] | IC50 [2] [nM] | IC50 [4] [nM] | other results
CC(=O)O[C@@]12CO[C@@H]1C[C@H](O)[C@@]1(C)C(=O)[C@H](OC(=O)C3CC3)C3=C(C)[C@@H](OC(=O)[C@H](O)[C@H](C=C(C)C)NC(=O)OC(C)(C)C)C[C@@](O)([C@@H](OC(=O)c4cccc(OC(F)(F)F)c4)[C@H]21)C3(C)C [SB-T-121405] | 1.01 |  |  |  | IC50 ([1]; Homo sapiens): 0.32 nM; IC50 ([2]; Homo sapiens): 0.98 nM; IC50 ([3]; Mus musculus): 0.33 nM; IC50 ([4]; Homo sapiens): 0.36 nM
C=C(C)CC(NC(=O)OC(C)(C)C)C(O)C(=O)OC1CC2(O)C(OC(=O)c3cccc(OC(F)(F)F)c3)C3C4(OC(C)=O)COC4CC(OC)C3(C)C(=O)C(OC)C(=C1C)C2(C)C (stereo not shown) [SB-T-1230105, 2-Debenzoyl-2-(3-trifluromethoxybenzoyl)-7,10-dimethyl-3′-dephenyl-3′-(2-methyl-2-propenyl)-docetaxel] | 0.55 | 0.98 |  |  | IC50 [5]: 6.98 nM
C=C(C)CC(NC(=O)OC(C)(C)C)C(O)C(=O)OC1CC2(O)C(OC(=O)c3cccc(OC(F)F)c3)C3C4(OC(C)=O)COC4CC(O)C3(C)C(=O)C(OC(C)=O)C(=C1C)C2(C)C (stereo not shown) [SB-T-121206, 2-Debenzoyl-2-(3-difluromethoxybenzoyl)-3′-dephenyl-10-acetyl-3′-(2-methyl-2-propenyl)docetaxel] | 0.28 | 0.49 | 0.31 | 0.23 | IC50 [3]: 0.35 nM
C=C(C)CC(NC(=O)OC(C)(C)C)C(O)C(=O)OC1CC2(O)C(OC(=O)c3cccc(OC(F)F)c3)C3C4(OC(C)=O)COC4CC(OC)C3(C)C(=O)C(OC)C(=C1C)C2(C)C (stereo not shown) [SB-T-1230106, 2-Debenzoyl-2-(3-difluromethoxybenzoyl)-7,10-dimethyl-3′-dephenyl-3′-(2-methyl-2-propenyl)-docetaxel] | 0.72 |  |  |  | IC50 [5]: 4.7 nM
C=C(C)CC(NC(=O)OC(C)(C)C)C(O)C(=O)OC1CC2(O)C(OC(=O)c3cccc(OC(F)(F)F)c3)C3C4(OC(C)=O)COC4CC(O)C3(C)C(=O)C(OC(=O)OC)C(=C1C)C2(C)C (stereo not shown) [SB-T-121705, 2-Debenzoyl-2-(3-trifluromethoxybenzoyl)-3′-dephenyl-10-(methoxycarbonyl)-3′-(2-methyl-2-propenyl)docetaxel] | 0.59 | 1.17 | 0.98 | 0.8 | 
CC(=O)O[C@H]1C(=O)[C@@]2(C)[C@H]([C@H](OC(=O)c3ccccc3)[C@]3(O)C[C@H](OC(=O)[C@H](O)[C@@H](NC(=O)c4ccccc4)c4ccccc4)C(C)=C1C3(C)C)[C@]1(OC(C)=O)CO[C@@H]1C[C@@H]2O [paclitaxel, reference compound] | 3.1 |  |  |  | IC50 ([1]; Homo sapiens): 3.78 nM; IC50 ([2]; Homo sapiens): 3.13 nM; IC50 ([3]; Mus musculus): 2.02 nM; IC50 [6]: 361 nM; IC50 ([4]; Homo sapiens): 68 nM; IC50 ([5]; Homo sapiens, LCC6MDR): 346 nM
CC(=O)O[C@@]12CO[C@@H]1C[C@H](O)[C@@]1(C)C(=O)[C@H](OC(=O)C3CC3)C3=C(C)[C@@H](OC(=O)[C@H](O)[C@H](CC(C)C)NC(=O)OC(C)(C)C)C[C@@](O)([C@@H](OC(=O)c4cccc(OC(F)(F)F)c4)[C@H]21)C3(C)C [SB-T-111405, 2-Debenzoyl-2-(3-trifluromethoxybenzoyl)-3′-dephenyl-10-(cyclopropanecarbonyl)-3′-(2-methylpropyl)docetaxel] |  |  |  |  | IC50 ([1]; Homo sapiens): 0.56 nM; IC50 ([3]; Mus musculus): 0.28 nM; IC50 ([4]; Homo sapiens): 2.3 nM; IC50 ([5]; Homo sapiens, LCC6MDR): 0.98 nM
C=C(C)CC(NC(=O)OC(C)(C)C)C(O)C(=O)OC1CC2(O)C(OC(=O)c3cccc(OC(F)(F)F)c3)C3C4(OC(C)=O)COC4CC(O)C3(C)C(=O)C(OC(C)=O)C(=C1C)C2(C)C (stereo not shown) [SB-T-121205, 2-Debenzoyl-2-(3-trifluromethoxybenzoyl)-3′-dephenyl-10-acetyl-3′-(2-methyl-2-propenyl)docetaxel] | 0.45 | 0.76 | 0.23 | 0.4 | IC50 [3]: 0.23 nM
C=C(C)CC(NC(=O)OC(C)(C)C)C(O)C(=O)OC1CC2(O)C(OC(=O)c3cccc(OC(F)(F)F)c3)C3C4(OC(C)=O)COC4CC(O)C3(C)C(=O)C(OC)C(=C1C)C2(C)C (stereo not shown) [SB-T-123005, 2-Debenzoyl-2-(3-trifluromethoxybenzoyl)-10-methyl-3′-dephenyl-3′-(2-methyl-2-propenyl)-docetaxel] |  | 0.87 | 2.46 | 7.3 | IC50 [3]: 1.43 nM
C=C(C)CC(NC(=O)OC(C)(C)C)C(O)C(=O)OC1CC2(O)C(OC(=O)c3cccc(OC(F)(F)F)c3)C3C4(OC(C)=O)COC4CC(O)C3(C)C(=O)C(OC(=O)N(C)C)C(=C1C)C2(C)C (stereo not shown) [SB-T-121605, 2-Debenzoyl-2-(3-trifluromethoxybenzoyl)-3′-dephenyl-10-(N,N-dimethylcarbamoyl)-3′-(2-methyl-2-propenyl)docetaxel] |  | 0.54 |  | 0.56 | IC50 [3]: 0.25 nM
C=C(C)CC(NC(=O)OC(C)(C)C)C(O)C(=O)OC1CC2(O)C(OC(=O)c3cccc(OC(F)F)c3)C3C4(OC(C)=O)COC4CC(O)C3(C)C(=O)C(OC(=O)C3CC3)C(=C1C)C2(C)C (stereo not shown) [SB-T-121406, 2-Debenzoyl-2-(3-difluromethoxybenzoyl)-3′-dephenyl-10-cyclopropanecarbonyl-3′-(2-methyl-2-propenyl)docetaxel] | 0.33 | 0.75 | 0.29 | 0.31 | 
C=C(C)CC(NC(=O)OC(C)(C)C)C(O)C(=O)OC1CC2(O)C(OC(=O)c3cccc(OC(F)F)c3)C3C4(OC(C)=O)COC4CC(O)C3(C)C(=O)C(OC(=O)OC)C(=C1C)C2(C)C (stereo not shown) [SB-T-121706] | 0.46 | 1.06 | 0.12 | 0.15 | 
C=C(C)CC(NC(=O)OC(C)(C)C)C(O)C(=O)OC1CC2(O)C(OC(=O)c3cccc(OC(F)(F)F)c3)C3C4(OC(C)=O)COC4CC(O)C3(C)C(=O)C(OC(=O)CC)C(=C1C)C2(C)C (stereo not shown) [SB-T-121305, 2-Debenzoyl-2-(3-trifluromethoxybenzoyl)-3′-dephenyl-10-propanoyl-3′-(2-methyl-2-propenyl)-docetaxel] | 1.54 | 1.12 | 1.74 | 1.75 | 
C=C(C)C[C@H](NC(=O)OC(C)(C)C)[C@@H](O)C(=O)O[C@H]1C[C@@]2(O)[C@@H](OC(=O)c3cccc(OC(F)F)c3)[C@@H]3[C@]4(OC(C)=O)CO[C@@H]4C[C@H](O)[C@@]3(C)C(=O)[C@H](OC(=O)CC)C(=C1C)C2(C)C [SB-T-121306, 2-Debenzoyl-2-(3-difluromethoxybenzoyl)-3′-dephenyl-10-propanoyl-3′-(2-methyl-2-propenyl)docetaxel] | 0.81 | 0.49 | 0.54 | 0.17 | 
